Data set [1] deals with Streptococcus faecalis. Kind of data set: Determination of MIC and MLC in test broth. The data set is classed as cell-based. Particulars: 30-day subculture. The method, then: (§1) Two antimicrobial endpoints were investigated. The minimum inhibitory concentration (MIC), which identifies the lowest concentration of test material at which growth for a specific organism is inhibited (by a minimum of 3 log units), reflects “biostatic activity”. The minimum lethal concentration (MLC), or lowest concentration that kills the organism and at which subculturing with growth is not possible, reflects “biocidal activity”. 1,4-CHDM and propylene glycol (PG) were added to previously sterilized screw-cap glass tubes and diluted with Peptone Water Broth with 2 wt % Dextrose (=test broth) to the following dilutions (weight percent): 0.05, 0.075, 0.125, 0.25, 0.5, 0.75, 1.25, 2.5, 5.0, 7.5, 10.0, 15.0, 20.0.
(§2) Each of 12 sets of the above test tubes were challenged with specific organisms (see Table 5) to produce a contamination of between 1.0×10^5 cfu/g and 1.0×10^6 cfu/g in the test broth to which no 1,4-CHDM or propylene glycol had been added. These challenge organisms were prepared in TSB broth, allowed to grow for 72 hours at 35° C.+/−2° C., centrifuged at 2500 rpm for 5 minutes, and the supernatant broth was removed. The microbial pellet was then re-diluted with sterile buffered water to a turbidity that matched previous 1.0×10^6 cfu/g concentrations of that organism's specific growth curve. This challenge was repeated on day 3. Plate counts of both challenges enumerated to within 1.0×10^5+/−5,000 cfu/g after 7 days incubation at 35° C.+/−2° C.
(§3) These tubes were mixed well by inversion (minimum of 25 inversions) and incubated at 35° C.+/−2° C. The tubes were inverted again (minimum of 25 times) on the third and seventh day of incubation and prior to each subculture.
(§4) These subcultures were incubated under optimal conditions and nutrition for no less than 5 days. Subcultures of 0.1 ml, undiluted and diluted 1:10, 1:100, . . . , and 1:10,000, were transferred to plates using the spread plate method onto Plate Count Agar; and SAB Dextrose Agar in addition for the Candida and Aspergillus species; and incubated as follows: 35° C.+/−2° C. for the Plate Count Agar and 22° C.+/−2° C. for the SAB Dextrose plates of Candida albicans and Aspergillus niger. Negative results were not reported before 7 days incubation and counts were performed after no less than 5 days incubation. Counts of Candida and Aspergillus species were made on the agar representing the highest count observed, usually the SAB Dextrose.

The subject of data set [2] is Penicillium notatum ATCC 36740. As to the kind of experiment: Determination of MIC and MLC in test broth. The data set is classed as cell-based. As to conditions: Penicillium notatum ATCC 36740, 30-day subculture. On the procedure: as §1, §2, §3, §4
The test system of data set [3] is Candida albicans ATCC 10231. Kind of data set: Determination of MIC and MLC in test broth. The data set is classed as cell-based. As to conditions: Candida albicans ATCC 10231, 30-day subculture. The method, then: as §1, §2, §3, §4
Data set [4] has as its system Proteus vulgaris. Kind of data set: Determination of MIC and MLC in test broth. The data set is classed as cell-based. As to conditions: 30-day subculture. The method, then:
as §1, §2, §3, §4

The test system of data set [5] is Staphylococcus aureus ATCC 25923. As to the kind of experiment: Determination of MIC and MLC in test broth. Particulars: Staphylococcus aureus ATCC 25923, 30-day subculture. The data set is classed as cell-based. On the procedure:
as §1, §2, §3, §4

Data set [6] in a line: Water extraction of 1,4-CHDM from biodiesel, gas chromatography. Particulars: soy biodiesel with theoretical 0.024 wt % CHDM, 0.90% water added, 3 days, centrifuged. The data set is classed as physicochemical. On the procedure:
A solution of 59.5 wt % 1,4-CHDM in ethoxydiglycol (Eastman DE solvent) was prepared by weighing into a vial 1.36 g ethoxydiglycol and 2.00 g 1,4-CHDM. The mixture was heated to 55° C. to melt the 1,4-CHDM, mixed on a vortex mixer, then placed on a rocker mixer overnight at room temperature to allow all of the 1,4-CHDM to dissolve.
1,4-CHDM was added to soy biodiesel as follows: 60.00 g soy biodiesel was weighed into 4-oz jar. 0.0246 g of the above CHDM/DE solution was weighed into the biodiesel. The sample was mixed using a magnetic stirrer. There was no visible separation after mixing and the biodiesel remained clear. The theoretical amount of CHDM in the biodiesel is 0.024 wt %. 5.00 g was removed from the sample for analysis.
To make a biodiesel mixture containing 0.90% water, 0.50 g deionized water was added to the remaining 55.0 g 1,4-CHDM/DE/biodiesel mixture and mixed with a magnetic stirrer. The mixture became cloudy when stirred and also contained visible water droplets. The mixture was allowed to sit undisturbed for 3 days, during which time a white aqueous layer appeared on the bottom and the biodiesel (top layer) still remained cloudy. The mixture was centrifuged to separate as much water as possible from the biodiesel. […] The 1,4-CHDM/DE/biodiesel mixtures before and after water extraction and the bottom aqueous layer were analyzed by gas chromatography for 1,4-CHDM. […]

Each structure is given as a SMILES string.

With `CC(O)CO` (stereo not drawn) [PG, propylene glycol], the “MIC 30 DAYS” value is given as 20 wt % in data set [1]; >20 wt % in data set [2]; 20 wt % in data set [3]; 20 wt % in data set [4]; 20 wt % in data set [5]. Further, the “MLC 30 DAYS” value in data set [1], in data set [2], in data set [3], in data set [4] and in data set [5] was >20 wt % in each case.

As for `OCC1CCC(CO)CC1` (stereo not drawn) [1,4-CHDM, 1,4-cyclohexanedimethanol], in data set [6], the “1,4-CHDM content of the aqueous bottom layer” value was 0.38 wt %. Besides, the “MIC 30 DAYS” value is recorded as 2.5 wt % in data set [1]; 5 wt % in data set [2]; 2.5 wt % in data set [3]; 2.5 wt % in data set [4]; 5 wt % in data set [5]. For the same compound, the “MLC 30 DAYS” value is listed as >20 wt % in data set [1]; >20 wt % in data set [2]; 20 wt % in data set [3]; >20 wt % in data set [4]; >20 wt % in data set [5].

These data come from patent US20100160454A1, “ANTIMICROBIAL AGENTS, COMPOSITIONS AND PRODUCTS CONTAINING THE SAME, AND METHODS OF USING THE COMPOSITIONS AND PRODUCTS” (Eastman Chemical Company, priority 2008, published 2010).
